Experimental data published in ChEMBL document CHEMBL5113544, “Development of Brain-Tumor-Targeted Benzothiazole-Based Boron Complex for Boron Neutron Capture Therapy” (ACS Med Chem Lett, 2022).

How the values were obtained:
[1] = Cytotoxicity against HEK293 cells incubated for 22 hrs by cell counting kit analysis; assay type: toxicity, cell-based; conditions: human
[2] = Effective permeability of the compound in pH 7.4 at 25 uM incubated for 4 hrs by PAMPA-BBB assay; assay type: ADME; conditions: read-out: Peff
[3] = Octanol/water partition coefficient, logP of compound at 10 mg incubated for 24 hrs by ICP-MS analysis; assay type: physicochemical
HEK293 = assay: Cytotoxicity against HEK293 cells assessed as reduction in cell survival at higher concentrations incubated for 22 hrs by cell counting kit analysis; assay type: toxicity, cell-based; conditions: human, hek293, 22 h
[4] = Biodistribution in blood of BALB/c nude mouse xenografted with human U-87 MG cells assessed as boron concentration at 500 mg/kg, ip measured 4 hrs post injection by ICP-MS analysis; assay type: ADME, organism-based; conditions: in vivo
[5] = Cytotoxicity against HEK293 cells assessed as cell survival at upto 100 uM incubated for 22 hrs by cell counting kit analysis relative to control; assay type: toxicity, cell-based; conditions: human, read-out: Survival
[6] = Cytotoxicity against human U-87 MG cells incubated for 22 hrs by cell counting kit analysis; assay type: functional, cell-based, U-87MG ATCC
[7] = Cytotoxicity against human U-87 MG cells assessed as cell survival at 100 uM incubated for 22 hrs by cell counting kit analysis relative to control; assay type: functional, U-87MG ATCC; conditions: read-out: Survival

`OB(O)c1ccc(-c2nc3ccccc3s2)cc1` showed an IC50 at 22 h [1] of 265 µM, a Papp at 4 h, 25 µM [2] of 59.8 ×10⁻⁶ cm/s and a logP at 24 h [3] of 0.32. The Activity (HEK293) was “Toxic”, the Drug uptake [4] was “Active” and the viability at 22 h, up to 100 µM [5] was > 95%. For the same molecule, the IC50 [6] was 112 µM and the viability at 100 µM [7] was < 43%.
